Experiment [1] concerns H37Rv strain of M. tuberculosis. Kind of experiment: Alamar Blue Susceptibility Test (MABA). The experiment is classed as cell-based. The note with it: for MIC: Mycobacterium tuberculosis, read-out: MABA (TB growth inhibition, colourimetric assay). A general note: Resazurin is reduced to fluorescent resorufin, in cell work by metabolically active cells.
Experiment [2] has as its system non replicating phase of M. tuberculosis (H37Rv with a plasmid with an acetimidase promoter driving a luciferase gene). In words: microbe, parasite or virus in culture. Particulars: non replicating M. tuberculosis H37Rv luciferase strain; for MIC: Mycobacterium tuberculosis, read-out: LORA (TB growth inhibition, MIC). The format is cell-based.
Setting [3] is: H37Rv strain of M. tuberculosis, Alamar Blue.

In brackets after ≈: the same amount, converted by molar mass. Counter-ions that a name gives are not always drawn. Like-named read-outs stand apart in the source and are kept apart here.

On to `c1ccc(CNc2nc(N3CCCCC3)nc3ccccc23)cc1` [Compound 4, N-Benzyl-2-(piperidin-1-yl)quinazolin-4-amine], for which the MIC is less than 10 µM in experiment [1] (setting [3]) and 10 to 50 µM (≈ 3.18 to 15.9 µg/mL) in experiment [2].
The matching figures for `c1ccc(CNc2nc(N3CCOCC3)nc3ccccc23)cc1` [Compound 5, N-Benzyl-2-morpholinoquinazolin-4-amine]: 50 to 128 µM (≈ 16 to 41 µg/mL) and 50 to 128 µM (≈ 16 to 41 µg/mL).
For the compound `CN1CCN(c2nc(NCc3ccccc3)c3ccccc3n2)CC1` [Compound 6, N-Benzyl-2-(4-methylpiperazin-1-yl)quinazolin-4-amine hydrochloride], the MIC in experiment [1] (setting [3]) and in experiment [2] was 50 to 128 µM each time.
`CC(Nc1nc(N2CCNCC2)nc2ccccc12)c1ccccc1` (stereo not shown) [Compound 8, N-(1-Phenylethyl)-2-(piperazin-1-yl)quinazolin-4-amine]: the MIC lay in the range of 50 to 128 µM (≈ 16.7 to 42.7 µg/mL) in experiment [1] (setting [3]) and 10 to 50 µM (≈ 3.33 to 16.7 µg/mL) in experiment [2].
Taken in the same sequence, the figures for `CC(Nc1nc(N2CCOCC2)nc2ccccc12)c1ccccc1` (stereo not shown) [Compound 9, 2-Morpholino-N-(1-phenylethyl)quinazolin-4-amine] were 50 to 128 µM (≈ 16.7 to 42.8 µg/mL) and 50 to 128 µM (≈ 16.7 to 42.8 µg/mL).
Taken in the same sequence, the figures for `CC(Nc1nc(N2CCN(S(C)(=O)=O)CC2)nc2ccccc12)c1ccccc1` (stereo not shown) [Compound 10, 2-(4-(Methylsulfonyl)piperazin-1-yl)-N-(1-phenylethyl)quinazolin-4-amine] were 50 to 128 µM (≈ 20.6 to 52.7 µg/mL) and 10 to 50 µM (≈ 4.12 to 20.6 µg/mL).
The matching figures for `CC(Nc1nc(N2CCCCC2)nc2ccccc12)c1ccccc1` (stereo not shown) [Compound 12, N-(1-Phenylethyl)-2-(piperidin-1-yl)quinazolin-4-amine]: 10 to 50 µM (≈ 3.32 to 16.6 µg/mL) and 10 to 50 µM (≈ 3.32 to 16.6 µg/mL).
For `c1coc(CNc2nc(N3CCCCC3)nc3ccccc23)c1` [Compound 13, N-(Furan-2-ylmethyl)-2-(piperidin-1-yl)quinazolin-4-amine], the values for the MIC in experiment [1] (setting [3]) and in experiment [2] were less than 10 µM and 10 to 50 µM (≈ 3.08 to 15.4 µg/mL), respectively.
The matching figures for `CC(Nc1nc(N2CCCC2)nc2ccccc12)c1ccccc1` (stereo not shown) [Compound 14, N-(1-Phenylethyl)-2-(pyrrolidin-1-yl)quinazolin-4-amine]: 10 to 50 µM (≈ 3.18 to 15.9 µg/mL) and 10 to 50 µM (≈ 3.18 to 15.9 µg/mL).
As for `CC(Nc1nc(N2CCN(S(=O)(=O)c3ccccc3)CC2)nc2ccccc12)c1ccccc1` (stereo not shown) [Compound 15, N-(1-Phenylethyl)-2-(4-(phenylsulfonyl)piperazin-1-yl)quinazolin-4-amine], the MIC in experiment [1] (setting [3]) is 50 to 128 µM (≈ 23.7 to 60.6 µg/mL). For the same compound, in experiment [2], the “LORA (TB growth inhibition, MIC)” value is recorded as “−”.
For `c1ccc2c(NC3C4CC5CC(C4)CC3C5)nc(N3CCOCC3)nc2c1` (stereo not shown) [Compound 16, N-(2′-Adamantyl)-2-morpholinoquinazolin-4-amine], the “MABA (TB growth inhibition, colourimetric assay)” value in experiment [1] (setting [3]) was “+++ (10-50 μM=+++)”. Further, the “LORA (TB growth inhibition, MIC)” value in experiment [2] is reported as “+++ (10-50 μM=+++)”.
As to `COc1cc2nc(N3CCOCC3)nc(NCc3ccccc3)c2cc1OC` [Compound 17, N-Benzyl-6,7-dimethoxy-2-morpholinoquinazolin-4-amine], in experiment [1] (setting [3]), the MIC lay in the range of 50 to 128 µM (≈ 19 to 48.7 µg/mL). Besides, the “LORA (TB growth inhibition, MIC)” value in experiment [2] is given as “−”.
Consider `c1ccc(CNc2nc(NCc3ccccc3)c3ccccc3n2)cc1` [Compound 18, N^2,N^4-Dibenzylquinazoline-2,4-diamine], for which the MIC in experiment [1] (setting [3]) and in experiment [2] was 10 to 50 µM (≈ 3.4 to 17 µg/mL) in each case.
Take `c1ccc2c(NC3C4CC5CC(C4)CC3C5)nc(N3CCOCC3)nc2c1` (stereo not shown) [Compound 19, 2-Morpholino-N-(1-[2′-adamantyl])quinazolin-4-amine]: in experiment [1] (setting [3]), the “MABA (TB growth inhibition, colourimetric assay)” value is given as “+++ (10-50 μM=+++)”. In addition, the “LORA (TB growth inhibition, MIC)” value in experiment [2] is on record as “+++ (10-50 μM=+++)”.
On to `Fc1ccc(Nc2nc(N3CCCC3)nc3nccnc23)cc1` [Compound 185, N-(4-Fluorophenyl)-2-(pyrrolidin-1-yl)pteridin-4-amine], for which the MIC in experiment [1] (setting [3]) lay within 50 to 128 µM (≈ 15.5 to 39.7 µg/mL).
Consider `c1ccc2c(c1)CCN(c1nc(N3CCCC3)nc3ccccc13)C2` [Compound 186, 4-(3,4-Dihydroisoquinolin-2(1H)-yl)-2-(pyrrolidin-1-yl)quinazoline], for which the MIC in experiment [1] (setting [3]) is 10 to 50 µM (≈ 3.3 to 16.5 µg/mL).
For the compound `c1csc(CNc2nc(N3CCCC3)nc3ccccc23)c1` [Compound 187, 2-(Pyrrolidin-1-yl)-N-(thiophen-2-ylmethyl)quinazolin-4-amine], in experiment [1] (setting [3]), the MIC lay in the range of 10 to 50 µM (≈ 3.1 to 15.5 µg/mL).
On the same count and under the same terms, then `COc1cc2c(cc1OC)CN(c1nc(N3CCCC3)nc3ccccc13)CC2` [Compound 188, 4-(6,7-Dimethoxy-3,4-dihydroisoquinolin-2(1H)-yl)-2-(pyrrolidin-1-yl)quinazoline], with 10 to 50 µM (≈ 3.9 to 19.5 µg/mL).
With `Clc1ccc(CNc2nc(N3CCCCC3)nc3ccccc23)s1` [Compound 189, N-((5-Chlorothiophen-2-yl)methyl)-2-(piperidin-1-yl)quinazolin-4-amine], the MIC in experiment [1] (setting [3]) was less than 10 µM.
Still for that read-out and setting: under `c1ccc2c(NCc3ccoc3)nc(N3CCCCC3)nc2c1` [Compound 190, N-(Furan-3-ylmethyl)-2-(piperidin-1-yl)quinazolin-4-amine] stands 10 to 50 µM (≈ 3.08 to 15.4 µg/mL).
Consider `c1ccc2c(NCc3ccsc3)nc(N3CCCCC3)nc2c1` [Compound 191, 2-(Piperidin-1-yl)-N-(thiophen-3-ylmethyl)quinazolin-4-amine], for which the MIC in experiment [1] (setting [3]) lay in the range of 10 to 50 µM (≈ 3.24 to 16.2 µg/mL).
As to `COc1cc2c(cc1OC)CN(c1nc(N3CCCCC3)nc3ccccc13)CC2` [Compound 192, 4-(6,7-Dimethoxy-3,4-dihydroisoquinolin-2(1H)-yl)-2-(piperidin-1-yl)quinazoline], in experiment [1] (setting [3]), the MIC was in the range of 10 to 50 µM (≈ 4.05 to 20.2 µg/mL).
For the compound `Fc1ccc(CNc2nc(N3CCc4ccc(Br)cc4C3)nc3ccccc23)cc1` [Compound 193, 2-(7-Bromo-3,4-dihydroisoquinolin-2(1H)-yl)-N-(4-fluorobenzyl)quinazolin-4-amine], the MIC in experiment [1] (setting [3]) lay in the range of 10 to 50 µM (≈ 4.63 to 23.2 µg/mL).
Turning to `Clc1ccc(CNc2nc(N3CCCCC3)nc3ccccc23)cn1` [Compound 194, N-((6-Chloropyridin-3-yl)methyl)-2-(piperidin-1-yl)quinazolin-4-amine hydrochloride], in experiment [1] (H37RV), the MIC was 10 to 50 µM.
As to `c1ccc2c(CNc3nc(N4CCCCC4)nc4ccccc34)ccnc2c1` [Compound 195, 2-(Piperidin-1-yl)-N-(quinolin-4-ylmethyl)quinazolin-4-amine], the MIC in experiment [1] (setting [3]) lay within 10 to 50 µM (≈ 3.69 to 18.5 µg/mL).
Regarding `FC(F)(F)c1ccc(CNc2nc(N3CCCCC3)nc3ccccc23)cn1` [Compound 196, 2-(Piperidin-1-yl)-N-((6-(trifluoromethyl)pyridin-3-yl)methyl)quinazolin-4-amine hydrochloride], the MIC in experiment [1] (setting [3]) fell in the range of 10 to 50 µM.
Same read-out and setting: then `c1ccc(CNc2nc(N3CCCCCC3)nc3ccccc23)cc1` [Compound 197, 2-(Azepan-1-yl)-N-benzylquinazolin-4-amine], with 10 to 50 µM (≈ 3.32 to 16.6 µg/mL).
For the compound `OC[C@@H]1CCCN1c1nc(NCc2ccc(F)cc2)c2ccccc2n1` [Compound 198, (S)-(1-(4-(4-Fluorobenzylamino)quinazolin-2-yl)pyrrolidin-2-yl)methanol], in experiment [1] (setting [3]), the MIC was 50 to 128 µM (≈ 17.6 to 45.1 µg/mL).
As to `COC[C@@H]1CCCN1c1nc(NCc2ccc(F)cc2)c2ccccc2n1` [Compound 199, (S)—N-(4-Fluorobenzyl)-2-(2-(methoxymethyl)pyrrolidin-1-yl)quinazolin-4-amine], the MIC in experiment [1] (setting [3]) is 10 to 50 µM (≈ 3.66 to 18.3 µg/mL).
Consider `COC(=O)[C@@H]1CCCN1c1nc(NCc2ccc(F)cc2)c2ccccc2n1` [Compound 200, (S)-Methyl 1-(4-(4-fluorobenzylamino)quinazolin-2-yl)pyrrolidine-2-carboxylate], for which the MIC in experiment [1] (setting [3]) fell in the range of 50 to 128 µM (≈ 19 to 48.7 µg/mL).
`Fc1ccc(CNc2nc(N3CCN(Cc4ccccc4)CC3)nc3ccccc23)cc1` [Compound 201, 2-(4-Benzylpiperazin-1-yl)-N-(4-fluorobenzyl)quinazolin-4-amine]: in experiment [1] (setting [3]), the MIC was 10 to 50 µM (≈ 4.28 to 21.4 µg/mL).
Still for that read-out and setting: then `O=C(C1CC1)N1CCN(c2nc(NCc3ccc(F)cc3)c3ccccc3n2)CC1` [Compound 202, Cyclopropyl(4-(4-(4-fluorobenzylamino)quinazolin-2-yl)piperazin-1-yl)methanone hydrochloride], with 50 to 128 µM; and `O=C(C1CCCCC1)N1CCN(c2nc(NCc3ccc(F)cc3)c3ccccc3n2)CC1` [Compound 203, Cyclohexyl(4-(4-(4-fluorobenzylamino)quinazolin-2-yl)piperazin-1-yl)methanone], with 10 to 50 µM (≈ 4.48 to 22.4 µg/mL); and `O=C(c1ccccc1)N1CCN(c2nc(NCc3ccc(F)cc3)c3ccccc3n2)CC1` [Compound 204, (4-(4-(4-Fluorobenzylamino)quinazolin-2-yl)piperazin-1-yl)(phenyl)methanone], with 50 to 128 µM (≈ 22.1 to 56.5 µg/mL).
Take `O=C(N1CCCC1)N1CCN(c2nc(NCc3ccc(F)cc3)c3ccccc3n2)CC1` [Compound 205, (4-(4-(4-Fluorobenzylamino)quinazolin-2-yl)piperazin-1-yl)(pyrrolidin-1-yl)methanone hydrochloride]: in experiment [1] (setting [3]), the MIC lay in the range of 50 to 128 µM.
Still for that read-out and setting: under `CCOC(=O)CNc1nc(NCc2ccc(F)cc2)c2ccccc2n1` [Compound 206, Ethyl 2-(4-(4-fluorobenzylamino)quinazolin-2-ylamino)acetate hydrochloride] stands 50 to 128 µM; under `COCCNc1nc(NCc2ccc(F)cc2)c2ccccc2n1` [Compound 207, N^4-(4-Fluorobenzyl)-N^2-(2-methoxyethyl)quinazoline-2,4-diamine], 50 to 128 µM (≈ 16.3 to 41.8 µg/mL).
The same measure, in the same setting: under `Fc1ccc(CNc2nc(NCC3CCCCC3)nc3ccccc23)cc1` [Compound 208, N^2-(Cyclohexylmethyl)-N^4-(4-fluorobenzyl)quinazoline-2,4-diamine] stands 10 to 50 µM (≈ 3.64 to 18.2 µg/mL); under `Fc1ccc(CNc2nc(NCCN3CCCCC3)nc3ccccc23)cc1` [Compound 209, N^4-(4-Fluorobenzyl)-N^2-(2-(piperidin-1-yl)ethyl)quinazoline-2,4-diamine hydrochloride], 50 to 128 µM.
In the case of `Nc1nc(N2CCCCC2)nc2ccccc12` [compound 1, 2-(Piperidin-1-yl)quinazolin-4-amine, reference compound], in experiment [1] (setting [3]), the “MABA (TB growth inhibition, colourimetric assay)” value is on record as “−”.
As to `Nc1nc(NCc2ccccc2)c2ccccc2n1` [compound 3, N^4-Benzylquinazoline-2,4-diamine, reference compound], the MIC in experiment [1] (setting [3]) fell in the range of 50 to 128 µM (≈ 12.5 to 32 µg/mL).

These data come from patent US20100317607A1, “USE OF COMPOUNDS FOR PREPARING ANTI-TUBERCULOSIS AGENTS” (INFECTIOUS DISEASE RESEARCH INSTITUTE, priority 2007, published 2010).
